According to ChEMBL document CHEMBL1201862, “PubChem BioAssay data set” (2004):
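96-well plates; 48 h exposure; 5 concentrations. Endpoints by linear interpolation between flanking doses. Not reached: highest tested concentration assigned. GI50 is the concentration that inhibits growth by half.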 Active and inactive are the calls of the source. No stated cut-off is given here; in the data, active = GI50 up to about 1.1 µM and inactive = higher.

What was measured:
Test in all cases: NCI-60 cell line screen, 48 h
UO-31 = test system: UO-31
TK-10 = test system: TK-10
OVCAR-8 = test system: OVCAR-8
M14 = test system: M14
SF-268 = test system: SF-268
NCI/ADR-RES = test system: NCI/ADR-RES
BT-549 = test system: BT-549
CCRF-CEM = test system: CCRF-CEM
SK-MEL-5 = test system: SK-MEL-5
HCT-15 = test system: HCT-15
Hs-578T = test system: Hs-578T
ACHN = test system: ACHN
K562 = test system: K562
DMS-273 = test system: DMS-273
SF-295 = test system: SF-295
MDA-N = test system: MDA-N
SN12C = test system: SN12C
KM12 = test system: KM12
NCI-H23 = test system: NCI-H23
LOX IMVI = test system: LOX IMVI

With C/C(=N\N=C(/[SeH])N1CC2CCC(CC2)C1)c1ccccn1 the GI50 (UO-31) was 0.217 µM (active), the GI50 (TK-10) was 0.762 µM (active) and the GI50 (OVCAR-8) was 0.0137 µM (active). The GI50 (M14) was 0.0255 µM (active), the GI50 (SF-268) was 0.161 µM (active) and the GI50 (NCI/ADR-RES) was < 0.01 µM (active). The GI50 (BT-549) was 0.182 µM (active), the GI50 (CCRF-CEM) was 0.0111 µM (active) and the GI50 (SK-MEL-5) was 0.051 µM (active). The GI50 (HCT-15) was 0.0147 µM, the GI50 (Hs-578T) was 0.198 µM (active) and the GI50 (ACHN) was 0.215 µM (active). The GI50 (K562) was < 0.01 µM (active), the GI50 (DMS-273) was 0.0136 µM (active) and the GI50 (SF-295) was 0.0673 µM (active). The GI50 (MDA-N) was 0.226 µM (active), the GI50 (SN12C) was 0.228 µM (active) and the GI50 (KM12) was 0.094 µM (active). For the same compound, the GI50 (NCI-H23) was 0.052 µM (active) and the GI50 (LOX IMVI) was 0.0244 µM (active).

For CCOC(=O)CCC(NC(=O)c1ccc(/N=C/c2nc3cc(C(F)(F)F)ccc3nc2-c2ccccc2)cc1)C(=O)OCC (configuration not stated), the GI50 (UO-31) was > 50 µM (inactive), the GI50 (TK-10) was 12.1 µM (inactive) and the GI50 (OVCAR-8) was 7.33 µM (inactive). The GI50 (M14) was 23.9 µM (inactive), the GI50 (SF-268) was 8.34 µM (inactive) and the GI50 (CCRF-CEM) was > 50 µM (inactive). For the same compound, the GI50 (SK-MEL-5) was 25.1 µM (inactive), the GI50 (HCT-15) was greater than 50 µM and the GI50 (ACHN) was 11.1 µM (inactive). For the same compound, the GI50 (K562) was > 50 µM (inactive), the GI50 (DMS-273) was > 100 µM (inactive) and the GI50 (SF-295) was 9.84 µM (inactive). The GI50 (SN12C) was > 50 µM (inactive), the GI50 (KM12) was 18.3 µM (inactive) and the GI50 (NCI-H23) was 7.82 µM (inactive). For the same compound, the GI50 (LOX IMVI) was 14.4 µM (inactive).

For C[N+]1=C(c2cccnc2/C=N/O)OCC1(C)C, the GI50 (UO-31) was > 100 µM (inactive), the GI50 (TK-10) was > 100 µM (inactive) and the GI50 (OVCAR-8) was > 100 µM (inactive). For the same compound, the GI50 (M14) was > 100 µM (inactive), the GI50 (SF-268) was > 100 µM (inactive) and the GI50 (CCRF-CEM) was > 100 µM (inactive). For the same compound, the GI50 (SK-MEL-5) was > 100 µM (inactive), the GI50 (HCT-15) was greater than 100 µM and the GI50 (ACHN) was > 100 µM (inactive). The GI50 (K562) was > 100 µM (inactive), the GI50 (DMS-273) was > 100 µM (inactive) and the GI50 (SF-295) was > 100 µM (inactive). For the same compound, the GI50 (SN12C) was > 100 µM (inactive), the GI50 (KM12) was > 100 µM (inactive) and the GI50 (NCI-H23) was > 100 µM (inactive). The GI50 (LOX IMVI) was > 100 µM (inactive).

COC(=O)C1C(=O)N(CCc2c[nH]c3ccccc23)C[C@@H]2CCC(=O)C[C@H]12 (some centres not stated) was tested, and the GI50 (UO-31) was > 100 µM (inactive), the GI50 (TK-10) was > 100 µM (inactive) and the GI50 (OVCAR-8) was > 100 µM (inactive). For the same compound, the GI50 (M14) was > 100 µM (inactive), the GI50 (SF-268) was > 100 µM (inactive) and the GI50 (CCRF-CEM) was > 100 µM (inactive). For the same compound, the GI50 (SK-MEL-5) was > 100 µM (inactive), the GI50 (HCT-15) was greater than 100 µM and the GI50 (K562) was > 100 µM (inactive). The GI50 (DMS-273) was > 100 µM (inactive), the GI50 (SF-295) was > 100 µM (inactive) and the GI50 (SN12C) was > 100 µM (inactive). For the same compound, the GI50 (KM12) was > 100 µM (inactive), the GI50 (NCI-H23) was > 100 µM (inactive) and the GI50 (LOX IMVI) was > 100 µM (inactive).

For O=C1CC(c2ccc(Cl)cc2)=Nc2ccccc2N1, the GI50 (UO-31) was 48 µM (inactive), the GI50 (TK-10) was 43.3 µM (inactive) and the GI50 (OVCAR-8) was 25.9 µM (inactive). The GI50 (M14) was > 100 µM (inactive), the GI50 (SF-268) was > 100 µM (inactive) and the GI50 (CCRF-CEM) was 15.1 µM (inactive). For the same compound, the GI50 (SK-MEL-5) was > 100 µM (inactive), the GI50 (HCT-15) was 65.8 µM and the GI50 (ACHN) was 69.5 µM (inactive). For the same compound, the GI50 (K562) was 40 µM (inactive), the GI50 (DMS-273) was 79.1 µM (inactive) and the GI50 (SF-295) was 86.7 µM (inactive). The GI50 (SN12C) was 46.7 µM (inactive), the GI50 (KM12) was > 100 µM (inactive) and the GI50 (NCI-H23) was 65.8 µM (inactive). For the same compound, the GI50 (LOX IMVI) was 24.2 µM (inactive).

In the case of Cc1cc(O)nc(NN2C(Cl)C(=O)C2c2ccccc2O)n1 (configuration not stated), the GI50 (UO-31) is reported as 2.06 µM (inactive), the GI50 (TK-10) is reported as 19.4 µM (inactive) and the GI50 (OVCAR-8) is reported as 2.66 µM (inactive). The GI50 (M14) was 3.15 µM (inactive), the GI50 (SF-268) was 1.53 µM (inactive) and the GI50 (NCI/ADR-RES) was 1.54 µM (inactive). The GI50 (CCRF-CEM) was 0.547 µM (active), the GI50 (SK-MEL-5) was 2.66 µM (inactive) and the GI50 (HCT-15) was 0.65 µM. For the same compound, the GI50 (Hs-578T) was 26.8 µM (inactive), the GI50 (ACHN) was 1.44 µM (inactive) and the GI50 (K562) was 1.08 µM (active). For the same compound, the GI50 (DMS-273) was 1.96 µM (inactive), the GI50 (SF-295) was 2.76 µM (inactive) and the GI50 (MDA-N) was 4.36 µM (inactive). The GI50 (SN12C) was 2.7 µM (inactive), the GI50 (KM12) was 4.32 µM (inactive) and the GI50 (NCI-H23) was 5.45 µM (inactive). For the same compound, the GI50 (LOX IMVI) was 1.02 µM (active).
